Source: US9314471B2, “Methods of preparing pharmaceutical solid state forms” (NeurMedix, Inc., priority 2008, dated 2016)

Tests used:
[1] = Vapor stressing of melt-quenched amorphous Compound 1; format: physicochemical
Description: Amorphous compound 1, with varying degrees of crystallinity was also obtained form melt-quenching Form III according to the following procedure. Form III was lightly crushed with a spatula in a vial that was then placed in an oilbath set at 175° C. A nitrogen stream was run through the vial and the vial kept in the oilbath until the sample had melted. The vial was then removed and quickly placed in a bath containing dry ice with acetone. The sample was placed in a freezer under desiccant and analyzed by XRPD for crystallinity.
The propensity of amorphous material to convert to various crystalline forms was studied by vapor stressing melt-quenched Compound 1, prepared from Form III by the immediately preceding procedure.

[2] = Reanalysis of crystalline forms after prolonged standing; format: physicochemical
Description: Thus, crystalline Form V of 17α-ethynyl-androstane-3α,17β-diol is an anhydrate (i.e., has no solvent in its crystal structure).
Prior to dissolution of Form VI for NMR analysis, the Form VI sample was washed with CCl4 to remove non-specifically absorbed surface solvent. Proton NMR spectroscopy thus indicates Form VI is a dioxane solvate, which is supported by the DTA/TGA data, and is most likely a mono dioxane solvate based upon integration of the δ 3.64 ppm resonance and the weight loss in TGA. After prolonged standing at ambient temperature and pressure, the Form VI sample was reanalyzed by DTA/TGA and proton NMR. […] Thus, desolvation of Form VI may occur if storage precautions are inadequate and may be accompanied by a polymorphic transition to a more thermodynamically stable form such as Form III.
Thus, crystalline Form VII of 17α-ethynyl-androstane-3α,17β-diol is most likely an anhydrate (i.e., has no solvent in its crystal structure).

[3] = system: LNCaP Cells; test: Cell cycle analysis of LNCaP cells (DAPI, cytometer); format: cell-based; settings: 50 nM, four days, LNCaP cells in FBS or CSS
Description: (§1) LNCaP Cells (5×10^5) were seeded in phenol-red free RPMI with 5% hormone depleted charcoal stripped serum (CSS) in 6-well plates and allowed to adhere overnight, then cultured in fetal bovine serum (FBS) or CSS with or without 50 nM Compound 1 for four days. At the end of the incubation period, floating and adherent cells were harvested for cell cycle analysis. LNCaP cells were resuspended in a […] solution of 4,6-diamidino-2-phenylindole (DAPI) and 0.1% NP-40 in a Tris-buffered saline solution (pH 7.0) and analyzed using an Influx cytometer (Cytopiea, Seattle, Wash.). Analyses were performed with MultiCycle software (Phoenix Flow Systems, San Diego, Calif.). The Annexin V-FITC Apoptosis Detection Kit (Calbiochem, La Jolla, Calif.) was used according to the instructions of the manufacturer to detect apoptosis.

[4] = system: established LNCaP tumors; test: AED-stimulated LNCaP tumor model, effect on established LNCaP tumors; format: in vivo, SCID mice; settings: 4 mg/mouse/day once a day for three weeks
Description: (§2) Castrated SCID mice (six week-old) were implanted with a 5 mg AED, 60-day time-release pellet (Innovative Labs, Sarasota Fla.). After three days, all mice were injected subcutaneously in the right flank with 100 μL of 7.5×10^6 LNCaP tumor cells in phenol red-free RPMI mixed 1:1 with Matrigel. Tumor volumes were measured weekly and calculated as a2×b/2 with a being the width and b the length of the tumor in millimeters (reported as mm^3).
To test the effect of a Compound 1 on established LNCaP tumors, 36 castrated SCID mice received AED pellets and were inoculated with LNCaP tumors and monitored as described above. Once the tumors reach 15-25 mm^3, the mice were paired by tumor volume, and each mouse in a pair was assigned to the vehicle or 4 mg/mouse/day Compound 1 group. Animals were dosed once a day for three weeks.
(§3) Statistical analysis: Time to first measurable tumor volume was analyzed via Kaplan-Meier product limit estimates, with the exact log-rank test applied to test for the significance of the difference. Reduction of tumor volume is defined as a reduction in volume of at least 20% of the baseline volume, persisting to the end of the study. To detect the difference between active and control group, Fisher's exact test and exact 95% Cl for the difference was applied. A tumor of non-measurable volume is a tumor that, with the methodology at hand, measures 0 to the end of the study. The growth rate of a tumor was also analyzed via the mixed model.

[5] = system: LNCaP Cells; test: Annexin V-FITC apoptosis detection in LNCaP cells; format: cell-based; settings: 50 nM, four days
Description: as §1

[6] = system: breast tumors induced by the administration of the carcinogen N-methyl-nitrosourea (NMU); test: MNU stimulated breast tumor model; format: in vivo, Lewis rats
Description: The following study determined the effect of a formulation prepared with a polymorph of 17α-ethynyl-androst-5-ene-3α,17β-diol (Crystalline Form III of Compound 1) on the rate of growth and incidence of breast tumors induced by the administration of the carcinogen N-methyl-nitrosourea (NMU). Additionally, the activity of Compound 1 was compared to TAMOXIFEN™ ((Z)-2-[4-(1,2-diphenylbut-1-enyl)phenoxy]-N,N-dimethyl-ethanamine), ARIMIDEX™ (anastrozole) and TAXOTERE™ (docetaxel), which are drugs currently used to treat breast cancer.
Seven week old female Lewis rats (150 animals, 104 required for the study) were anesthetized with isoflurane for NMU administration. NMU was the administered ip. at a dose of 50 mg/Kg. Mammary tumors that developed were measured using a vernier caliper with two axes of the tumor measured in cm. Treatment commenced using a liquid formulation of Compound 1, prepared by dissolving crystalline […] in vehicle, when rats have a tumor volume of 0.5 cm×0.5 cm (at about 12-20 week of age). Treatment continued for 28 consecutive days, followed by 28 days of observation.
The experimental groups were Negative control group (no treatment), Vehicle control group (30% cyclodextrin-sulfobutylether in water), two treatment groups (8 mg/rat and 4 mg/rat), three standard therapy groups using an estrogen blocker (TAMOXIFEN™), an aromatase inhibitor (ARIMIDEX™), a cytotoxic agent (TAXOTERE™) and a combination treatment group receiving Compound 1 (8 mg/kg) and TAXOTERE™.

[7] = system: LNCaP tumor cells; test: AED-stimulated LNCaP tumor model, effect of dose on tumor incidence; format: in vivo, SCID mice; settings: for mean tumor volume in the animals that developed tumors: 28 days, vehicle 157 mm^3; for tumor incidence (compared to vehicle): daily for 28 days from 24 hours after tumor inoculation
Description: as §2
To test the effect of dose on tumor incidence, a total of 48 castrated male SCID mice were implanted with LNCaP tumor cells as described, and the mice were randomly divided into 4 groups of 12 animals each to provide vehicle control (30% cyclodextrin-sulfobutylether in water) group and treatment groups using 4 mg/mouse/day, 1 mg/mouse/day, and 0.4 mg/mouse/day). Treatment groups used a liquid formulation prepared by dissolving a solid state form of 17α-ethynyl-androst-5-ene-3α,17β-diol (Compound 1) in vehicle, which provided 20 mg Compound 1 per mL in 30% cyclodextrin-sulfobutylether in water. The liquid formulation so prepared was administered 24 hours after tumor inoculation as a 200 μL intraperitoneal (ip) injection. All animals were dosed daily for 28 consecutive days and tumor volumes were measured weekly.
as §3

[8] = Interconversion of crystalline forms in methanol-water (XRPD); format: physicochemical
Description: Form III Compound 1 (77.1 mg) was added to a glass vial, followed by MeOH (0.8 mL) and a stirring bar. The sample was placed in an oil bath at 65° C. and solids completely dissolved. Additional Form III was added so that excess solids remained and the mixture stirred for about 20 minutes. Additional MeOH (0.2 mL) was added and the mixture was hot filtered into a clean vial using a 0.2 μm nylon filter, and the filtrate was then placed in the oil bath at 65° C. Water (1 mL) was added and the mixture cooled to 20° C. over 2 hours. […] Form I was also produced from a slurry of Form III in 1:1 methanol water or 3:1 methanol:water that is seeded with samples having XRPD patterns of Form IV, Form V, Form VI, Form VII and Form VIII and stirred for 5 da at about 65° C. or 7 da at about 5° C.

C#C[C@]1(O)CC[C@H]2[C@@H]3CC[C@H]4C[C@H](O)CC[C@]4(C)[C@H]3CC[C@@]21C [amorphous Compound 1, 17-ethynyl-5α-androstane-3α,17β-diol]
conversion of amorphous material to crystalline form ([1]; vapor stressing at high humidity): will convert back to Form III

C#C[C@]1(O)CC[C@H]2[C@@H]3CC[C@H]4C[C@H](O)CC[C@]4(C)[C@H]3CC[C@@]21C [Form V, 17α-ethynyl-5α-androstane-3α,17β-diol]
polymorphic transition on prolonged standing (XRPD reanalysis) ([2]; prolonged standing): undergone a polymorphic transition to Form III

C#C[C@]1(O)CC[C@H]2[C@@H]3CC[C@H]4C[C@H](O)CC[C@]4(C)[C@H]3CC[C@@]21C [Form VI, 17α-ethynyl-5α-androstane-3α,17β-diol]
desolvation on standing (DTA/TGA reanalysis) ([2]; prolonged standing at ambient temperature and pressure): no TGA weight loss and no desolvation events in DTA

C#C[C@]1(O)CC[C@H]2[C@@H]3CC[C@H]4C[C@H](O)CC[C@]4(C)[C@H]3CC[C@@]21C [Compound 1, 17-Ethynyl-10R,13S-dimethyl-2,3,4,5S,6,7,8R,9S,10,11,12,13,14S,15,16,17-hexadecahydro-1H-cyclopenta[a]phenanthrene-3S,17S-diol]
number of cells in G1 [3]: rise in the number of cells in G1
mice with a tumor that became non-measurable by Day 15 [4]: two
growth of established tumors (tumor volume) ([4]; tumors 15-25 mm^3 at start, p<0.001 vs vehicle): significantly blocked the growth of tumors
percent of mice that reduced their tumor volumes by 20% or more ([4]; vs vehicle, p<0.0294): significantly greater percent of mice
percentage of apoptotic LNCaP cells [5]: increase in the percentage of apoptotic LNCaP cells
time to a new tumor as compared to vehicle ([6]; 28 consecutive days of treatment, 28 days of observation, p<0.001): longer time to a new tumor
time to new tumor compared with TAXOTERE ([6]; Compound 1 at 4 mg, p=0.042): outperformed TAXOTERE™
tumor burden by volume compared with vehicle ([6]; Day 7 on: p<0.001): less tumor burden than for the vehicle treated group
median time to new tumor ([6]; from first day of dosing, vehicle 10 days): at least 56 days
delay to the occurrence of a second tumor vs vehicle ([6]; from median times to new tumor): at least a five fold delay
mean tumor volume in the animals that developed tumors ([7]; 0.4 mg/mouse/day ip): 34 mm^3
mean tumor volume in the animals that developed tumors ([7]; 1 mg/mouse/day ip): 4 mm^3
tumor incidence (compared to vehicle) ([7]; 1 mg/mouse/day ip, p=0.006, n=11): significant reduction in tumor incidence
mean tumor volume in the animals that developed tumors ([7]; 4 mg/mouse/day ip): 0 mm^3
tumor incidence (compared to vehicle) ([7]; 4 mg/mouse/day ip, p<0.001, n=12): significant reduction in tumor incidence
tumor volume ([7]; all three dose groups (4, 1, 0.4 mg/mouse/day ip, 28 days)): decreases in tumor volume apparent
time to a measurable tumor volume ([7]; three treated groups (4, 1, 0.4 mg/mouse/day ip), p<0.01): statistically significant delay

C#C[C@]1(O)CC[C@H]2[C@@H]3CC[C@H]4C[C@H](O)CC[C@]4(C)[C@H]3CC[C@@]21C [Form III, 17α-ethynyl-5α-androstane-3α,17β-diol]
relative thermodynamic stability of polymorphic forms ([1]; provided not exposed to methanol-water): most thermodynamically stable polymorphic form
conversion of crystalline form (XRPD) ([8]; dissolved in MeOH at 65° C., water added, cooled to 20° C. over 2 hours, also slurry in 1:1 or 3:1 methanol:water): has converted to Form I

C#C[C@]1(O)CC[C@H]2[C@@H]3CC[C@H]4C[C@H](O)CC[C@]4(C)[C@H]3CC[C@@]21C [Form I, 17α-ethynyl-5α-androstane-3α,17β-diol]
relative stability of polymorphic forms ([8]; methanol-water, slurry seeded with Forms IV-VIII, 5 da at about 65° C. or 7 da at about 5° C.): most stable polymorphic form in methanol-water
